Values after ≈ are worked out from the molar mass of the structure shown.

Assay type in all cases: cell-based
In assay [1] the test system is MD-AMB-231 human breast cancer cells. The assay is described as follows: Human tumor cell line assay, MD-AMB-231 (mammary). The settings on record: 120 hours, read-out: Activity at prescribed doses. On the procedure: (§1) HUMAN TUMOR CELL LINE ASSAY
(§2) Maintenance of Cell Line HCT-8 human colon tumor cells are grown in RPMl 1640 medium (GIBCO). A-549 human lung carcinoma cells and MD-AMB-231 human breast cancer cells are cultured in Dulbecco medium (Biologos, Inc.). All media are supplemented with 10% fetal bovine serum and contain 50 ug/ml gentamycin. All human tumor cell lines are incubated at 5% CO2 at 37° and subcultured once a week. The seeding levels are 350,000 MCF-7 cells, 60,000 HCT-8 cells and 300,000 A-549 cells per T-25 Flask. Vinblastine is used as a positive control.
(§3) 2. Incubate in a CO2 -incubator for 48 hours.
(§4) 3. Add composition to each well and incubate for an additional 120 hours.
(§5) 4. Discard medium and stain with methylene blue (HCT-8) or crystal violet (A-549 and MD-AMB-231).
(§6) 5. Compare cell density of drug-treated well with that of the control (no drug added) as follows: ND (not detectable), >90%; 1+, 75-90%; 2+, 50-74%; 3+, 25-49%, 4+, >25% of control growth.

The subject of assay [2] is P388 mouse leukemia cells. In words: P388 mouse leukemia cell assay. As to conditions: 48 hours. How it is done:
P388 MOUSE LEUKEMIA CELL ASSAY
P388 mouse leukemia cells are grown in Dulbecco MEM medium with 10% horse serum, 4 mM glutamine, and 20 ug/ml gentamycin (Biologos, Inc.). Cells are incubated in 10% CO2 and subcultured 2 times per week.
1. Add composition to each well of a 24-well plate or tube and allow solvent to evaporate to dryness.
2. Add 2 ml (1.2×10^5) cells to each well or tube and mix.
3. Incubate in 10% CO2 at 37° for 48 hours.
4. Read plates with an inverted microscope, scoring activity from 1+ to 4+ as follows: ND (not detectable), >90%; 1+, 75-90%; 2+, 50-74%; 3+, 25-49%; 4+, <25% of control growth. Alternatively, the activity may be designated as IC50 concentration which is the concentration of composition required to inhibit 50% of cell growth on the plate.
Cell counts are performed on each tube and results are reported as percent of control.

The test system of assay [3] is A-549 human lung carcinoma cells. In words: Human tumor cell line assay, A-549 (lung). The settings on record: 120 hours, read-out: Activity at prescribed doses. How it is done: as §1, §2, §3, §4, §5, §6
Assay [4] concerns HCT-8 human colon tumor cells. In words: Human tumor cell line assay, HCT-8 (colon). As to conditions: 120 hours, read-out: Activity at prescribed doses. How it is done: as §1, §2, §3, §4, §5, §6

On to `CN1CC(c2c[nH]c3c(Br)c(Br)cc(O)c23)NCC1c1c[nH]c2cc(Br)ccc12` (stereo not shown) [Biemnidin (1), biemnidin], for which the activity at 1 µg/mL in assay [1] (MDA-MB-231, MD-AMB-231, 1 μg/ml) was more than 90%; in assay [3] (A549, A-549, 1 μg/ml), more than 90%; in assay [4] (HCT-8, 1 μg/ml) it was more than 90%. Also, the activity at 10 µg/mL in assay [1] (MDA-MB-231, MD-AMB-231, 10 μg/ml) was more than 25%; in assay [3] (A549, A-549, 10 μg/ml), more than 25%; in assay [4] (HCT-8, 10 μg/ml) it was more than 25%. Moreover, the activity at 50 µg/mL in assay [1] (MDA-MB-231, MD-AMB-231, 50 μg/ml) is more than 25%; in assay [3] (A549, A-549, 50 μg/ml), more than 25%; in assay [4] (HCT-8, 50 μg/ml), more than 25%. Inhibition in assay [2] was half-maximal at 15 µg/mL (≈ 25.7 µM) (IC50).

The values are drawn from patent publication US4895844A, “Indole alkaloid compositions and their methods of use” (Harbor Branch Oceanographic Institution, Inc., priority 1989, dated 1990).
